As usually defined, the IC50 is the concentration that inhibits the measured activity by half.

Counter-ions that a name gives are not always drawn.

Assay [1] deals with Streptozotocin (STZ)-induced diabetic nephropathy. Description: Streptozotocin induced diabetic nephropathy (kidney fibrosis) model. It counts as in vivo, mouse. As to conditions: diabetic eNOS knockout mice, 24 weeks, 0.1-100 mg/Kg. The protocol:
Streptozotocin (STZ)-induced diabetic nephropathy is commonly used for creating rodent models of type 1 diabetes which develop renal injury, due to pancreatic cell damage with similarities to human diabetic nephropathy.
Diabetes is induced in eNOS knockout mice on C57BL/6 background by intraperitoneal STZ injection (55 mg/kg in 0.1 M citrate buffer) in mice of 6-9 weeks of age (see Huang C et al, Blockade of KCa3.1 ameliorates renal fibrosis through a TGF-bl/Smad pathway in diabetic mice. Diabetes, 2013 62(8):2923-2934).
Blood sugar level (BSL) is determined by tail vein blood. Mice with BSL>16 mmol/L two weeks post STZ injection are considered diabetic. Treatment with Compound 12 is carried out for 24 weeks from diagnosis of diabetes at a dose of 0.1-100 mg/Kg.

The target in assay [2] is human recombinant SSAO/VAP-1 (Homo sapiens (Human), UniProt Q16853). Description: Inhibition of human recombinant SSAO/VAP-1 amine oxidase activity. It counts as biochemical. As to conditions: 30 min preincubation at 37° C., 600 μM benzylamine. A digest of the protocol: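 Purified SSAO/VAP-1 (residues 34-763, expressed in CHO Lec 8 cells; 0.25 μg/mL) preincubated 30 min at 37° C with compound in 0.1 M sodium phosphate pH 7.4. Reaction mix of 600 μM benzylamine, 120 μM Amplex Red and 1.5 U/mL HRP added; fluorescence (ex 565/em 590 nm) read every 2.5 min for 30 min; IC50 from kinetic slopes over 4-11 point curves.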
human recombinant SSAO/VAP-1, sequence (Q16853 34-763): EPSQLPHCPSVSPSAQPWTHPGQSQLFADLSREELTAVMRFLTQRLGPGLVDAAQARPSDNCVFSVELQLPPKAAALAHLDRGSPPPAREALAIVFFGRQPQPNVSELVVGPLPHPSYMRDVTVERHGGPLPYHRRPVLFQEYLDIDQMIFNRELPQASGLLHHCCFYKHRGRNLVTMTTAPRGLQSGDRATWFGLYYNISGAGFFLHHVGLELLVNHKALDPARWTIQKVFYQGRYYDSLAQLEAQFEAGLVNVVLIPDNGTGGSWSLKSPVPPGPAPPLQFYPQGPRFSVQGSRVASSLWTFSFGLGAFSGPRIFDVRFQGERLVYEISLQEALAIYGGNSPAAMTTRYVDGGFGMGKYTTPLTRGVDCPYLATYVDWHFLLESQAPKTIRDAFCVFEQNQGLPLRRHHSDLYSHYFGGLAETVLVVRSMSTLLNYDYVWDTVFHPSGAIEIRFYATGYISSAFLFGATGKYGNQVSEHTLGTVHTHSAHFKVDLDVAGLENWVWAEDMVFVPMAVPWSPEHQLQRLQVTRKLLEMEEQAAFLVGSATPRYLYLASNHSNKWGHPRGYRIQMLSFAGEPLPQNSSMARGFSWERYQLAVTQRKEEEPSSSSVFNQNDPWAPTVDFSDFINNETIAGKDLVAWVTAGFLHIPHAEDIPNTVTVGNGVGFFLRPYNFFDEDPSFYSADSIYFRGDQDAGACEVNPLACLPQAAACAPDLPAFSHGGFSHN

For assay [3], the system named is CCl4 induced liver fibrosis. In words: CCl4 induced liver fibrosis model. Format: in vivo, rat. The note with it: 0.1-100 mg/Kg. The protocol:
An analysis of the use of LOXL2 inhibitors to treat inflammatory/fibrotic diseases is performed through the use of a CCl4 induced liver fibrosis model. Liver injury is frequently followed by complete parenchymal regeneration due to regenerative potency of hepatocytes. Continuous liver injury due to the administration of CCl4 leads to extracellular matrix accumulation, accompanied by recurrent hepatocyte necrosis, inflammation, and regenerative processes, causing liver fibrosis and consequently liver cirrhosis (see Natsume, M., et al., Attenuated liver fibrosis and depressed serum albumin levels in carbon tetrachloride-treated IL-6-deficient mice. J. Leukoc. Biol., 1999, 66, 601-608 also See Yao, Q, Y., et al. Inhibition by curcumin of multiple sites of the transforming growth factor-beta1 signalling pathway ameliorates the progression of liver fibrosis induced by carbon tetrachloride in rats. BMC Complement Altern Med. 2012 Sep. 16; 12(1):156.)
Rats are administered orally with CCl4 at a concentration of 0.25 μL/g in olive oil, 3 times per week for 6 weeks. Compound 25 is given 0.1-100 mg/Kg throughout the period of the experimental procedure or only 3 weeks after CCl4 administration and then throughout the entire study. […]

The subject of assay [4] is primary fibroblasts from confirmed cases of IPF. Description: Collagen cross-link formation in in vitro fibroblastic foci model of IPF. It counts as cell-based, human. As to conditions: TGF-β1 stimulated foci, six weeks culture, FIGS. 7a and 7b. From the text: The lung tissue of patients with idiopathic pulmonary fibrosis (IPF) is characterised by dense collections of myofibroblasts and extracellular matrix (ECM) termed ‘fibroblastic foci’. Using a novel in vitro model of fibroblastic foci (Jones et al., AJRCCM 191; 2015:A4912) the formation of lysyl oxidase (LOX) mediated collagen cross-links and the effects of the nonselective LOX inhibitor β-aminopropionitrile (BAPN) as well lysyl oxidase like-2 (LOXL2)-selective inhibitors were investigated.
Cultures of primary fibroblasts were grown out from clinical diagnostic biopsies of fibrotic lung and stored in liquid nitrogen. […]
To quantify collagen cross-links (Robins Biochem Soc Trans 2007; 35(5): 849-852; Saito et al Anal. Biochem. 1997; 253: 26-32; Sims, Avery & Bailey Methods in Molecular Biology 2000; vol 139: 11-26), cultures were treated with potassium borohydride to stabilise the reducible immature cross-links, and hydrolysed in 6N HCl at 100° C. for 16 hr. Total collagen content was assessed by hydroxyproline assay. Immature cross-links were assessed by LC/MS/MS and mature pyridinoline cross-links by ELISA. Cross-link data is expressed as moles of cross-link per mole collagen.

With `CCOC(=O)c1ccc2c(c1)c(-c1cccc(S(=O)(=O)N(C)C)c1)c(C)n2C/C(F)=C/CN` [Compound 12, (Z)-ethyl 1-(4-amino-2-fluorobut-2-en-1-yl)-3-(3-(N,N-dimethylsulfamoyl)phenyl)-2-methyl-1H-indole-5-carboxylate], the “kidney function by albumin/creatinine ratio quantification” value in assay [1] was “significant improvement”. Moreover, in assay [1] (vs vehicle-treated group), the “reduction of fibrosis by Masson's Trichrome staining (collagen expression and glomerular damage)” value was “up to 50%”. Besides, the IC50 in assay [2] is more than 3000 nM.
Consider `Cc1c(-c2cccc(S(=O)(=O)N(C)C)c2)c2ncccc2n1C/C(F)=C/CN` [Compound 25, (Z)-3-(1-(4-amino-2-fluorobut-2-en-1-yl)-2-methyl-1H-pyrrolo[3,2-b]pyridin-3-yl)-N,N-dimethylbenzenesulfonamide Dihydrochloride], for which, in assay [3] (CCl4 model, statistically significant), the “inhibition of liver collagen by hydroxyproline analysis” value is given as more than 30%. Besides, the “reduction of liver fibrosis by liver sirius red staining with quantification” value in assay [3] (rats, CCl4 orally 6 weeks, vs vehicle-treated group) is “up to 50%”. In addition, the IC50 in assay [2] is more than 3000 nM.
Take `Cc1ccc2c(n1)c(-c1cccc(S(C)(=O)=O)c1)c(C)n2C/C(F)=C/CN` [Compound 112, (Z)-4-(2,5-dimethyl-3-(3-(methylsulfonyl)phenyl)-1H-pyrrolo[3,2-b]pyridin-1-yl)-3-fluorobut-2-en-1-amine Dihydrochloride]: the “collagen cross-link formation (immature and mature cross-links)” value in assay [4] is listed as “reduced cross-link formation in a concentration dependent manner”. Moreover, the IC50 in assay [2] was more than 3000 nM.

These data come from patent US10717733B2, “Haloallylamine indole and azaindole derivative inhibitors of lysyl oxidases and uses thereof” (PHARMAXIS LTD., priority 2016, dated 2020).
